Source: US5554620A, “Substituted 6,11-ethano-6,11-dihydrobenzo[b] quinolizinium salts and compositions and methods of use thereof” (Sterling Winthrop Inc., priority 1994, dated 1996)

How the values were obtained:
[1] = tested on: cultured cortical neurons; assay: Antagonism of NMDA-induced neurotoxicity in cultured cortical neurons (LDH release); assay type: cell-based, mouse (Swiss-Webster); details: Mus musculus, Cortical neurone, 500 μM NMDA, 30 min exposure; LDH 24 h later
Method: Antagonism of NMDA-induced Neurotoxicity in Cultured Neurons
Preparation of Cultured Cortical Neurons
Pregnant, Swiss-Webster mice were obtained from Taconic Farms (Germantown, New York) and sacrificed 16 days post conception. Fetuses were removed and placed in a sterile dish containing Hank's balanced salt solution (HBSS), pH 7.4. Brain cortices were dissected, meninges were removed, the tissue was minced and placed into a solution of HBSS containing 0.25% (w/v) trypsin at 37° C. for 15 minutes. Tissue was then triturated with a sterile pasteur pipet, diluted with minimal essential media (Gibco 330-1430), pH 7.4, supplemented with 10% horse serum, 10% fetal calf serum, 2 mM 1-glutamine, 21 mM d-glucose, 2.2 g/L sodium bicarbonate, 1000 U/mL penicillin, and 1,000 μg/mL streptomycin. Cells were plated onto Falcon primaria 96 well plates at a final density of 50,000 cells/well and incubated at 37 °C in the presence of 5% (v/v) carbon dioxide. After 5 days, plating media was replaced with maintenance media containing minimal essential media (Gibco 330-1430), pH 7.4, supplemented with 10% horse serum, […], 21 mM d-glucose, 2.2 g/L sodium bicarbonate, 1,000 U/mL penicillin, 1,000 μg/mL streptomycin, and 10 μM cytosine arabinoside. On days 7 and 10, media was replaced with maintenance media as above lacking the cytosine arabinoside. Experiments were conducted on day 13.
Neuroprotection Assessment
Day 13 cultured cortical neurons were washed twice with minimal essential media, pH 7.4 and then exposed for 30 minutes to 500 μM N-methyl-D-aspartic acid (NMDA) with or without varying concentrations of test agents. […] MK-801 and test agents were prepared in minimal essential media supplemented with 21 mM d-glucose and 2.2 g/L sodium bicarbonate (MEM). After 30 minutes, media was replaced with MEM alone. Exposure of neurons to test agents was limited to the NMDA treatment period. Twenty-four hours after removal of NMDA, an aliquot of media from each well was removed for assessment of cell injury by determining lactate dehydrogenase (LDH) activity by the method of Wroblewski and LaDue Proc. Soc. Exp. Biol. Med. 1955, 90, 210-213. The results are expressed as an IC50 (in nM) value (concentration causing 50% inhibition) for the antagonism of NMDA--inducedneurotoxicity. Table 3 summarizes the results obtained from the testing of representative compounds of the invention in the [^3 H]TCP radioreceptor assay as well as in the antagonism of NMDA-induced neurotoxicity in cultured neurons.

rat ischemia model = assay: Middle cerebral artery occlusion (MCAo) model with reperfusion; assay type: in vivo, rat (male Long Evans hooded and male Sprague-Dawley); details: i.v. infusion started 30 min before occlusion
Method: Middle Cerebral Artery Occlusion (MCAo) Model with Reperfusion
A 3-vessel rat ischemia model similar to those that have been extensively described in the literature (e.g. Stroke 17, 738-743 (1986), Stroke 20, 513-518 (1989)) was utilized. Under isoflurane anesthesia the right middle cerebral artery (via an approach through the temporalis muscle) and both common carotid arteries were reversibly occluded for varying durations between 60 minutes and 120 minutes. Both male Long Evans hooded rats and male Sprague-Dawley rats weighing between 300 and 420 grams were used. The animals' temperature was maintained throughout the study with heat lamps. A femoral vein and the ipsilateral femoral artery were cannulated for intravenous infusion and arterial blood pressure measurements and blood samples. Infusions of the test compounds were initiated 30 minutes prior to occlusion at a rate of 40 microliters per minute. After reinitiation of blood flow the animals were allowed to regain consciousness. Six hours post-initiation of ischemia the animals were sacrificed and the extent of neuronal damage was quantified with TTC staining. The results are expressed as a percent inhibition (±SEM) of infarct and penumbra region.

PCP receptor = assay: [3H]TCP radioreceptor assay (binding to PCP recognition sites); set-up: species or system rat (male Sprague-Dawley, whole brain); details: [3H]TCP approx. 1 nM, rat brain membranes; mean of at least two determinations
How it was run: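 Rat whole-brain membranes (Tris-HCl, pH 7.7), 0.5 mg protein/tube, incubated with ~1 nM [3H]TCP for 25 min at room temperature; non-specific binding defined with 100 μM PCP. Bound ligand collected by filtration and counted by scintillation; Ki from at least two determinations, or % inhibition at 10 μM.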

SMILES | IC50 [1] [nM] | % Inhibition (± SEM) of infarct and penumbra region (rat ischemia model; 0.01 mg test compound/kg/min) [%] | % Inhibition (± SEM) of infarct and penumbra region (rat ischemia model; 0.03 mg test compound/kg/min) [%] | % Inhibition (± SEM) of infarct and penumbra region (rat ischemia model; 0.1 mg test compound/kg/min) [%] | Ki (PCP receptor) [nM]
c1ccc2c(c1)C1CC(c3ccoc3)(c3ccoc3)C2c2cccc[n+]21 (single isomer, unassigned; (+)) [Example 40(b), (+)-6,11-ethano-12,12-di(3-furanyl)-6,11-dihydrobenzo[b]quinolizinium chloride 3/2 hydrate] | 20 | 1 ± 31 | 49 ± 25 | 47 ± 18 | 1.66
[Cl-].c1ccc2c(c1)C1CC(c3ccoc3)(c3ccoc3)C2c2cccc[n+]21 (stereo not drawn) [39(c), 6,11-ethano-12,12-di(3-furanyl)-6,11-dihydrobenzo[b]quinolizinium chloride] | 45.4 |  | 20 ± 7 | 34 ± 6 | 1.79
